The source of these data is US20180237713A1, “Ionic Liquid, Lubricant, and Magnetic Recording Medium” (priority 2015, published 2018).

Some results are limits rather than exact numbers.

Series [1] is described as follows: Thermal stability measurement (TG/DTA weight reduction temperature). The settings on record: for Weight reduction temperature 5% / Weight reduction temperature 10% / Weight reduction temperature 20%: TG/DTA, air 200 mL/min, 10° C./min, 30° C. to 600° C.
A short description of series [2]: Solubility test of ionic liquid in fluorine-based solvent VERTREL XF. The following applies: for Solubility to fluorine-based solvent: VERTREL XF [CF3(CHF)2CF2CF3], 25° C., ultrasonic 5 minutes, left 1 day, visual; for Dissolved or not in fluorine-based solvent: VERTREL XF.
Procedure: A solubility test was performed on the ionic liquid synthesized each of Examples and each of Comparative Examples using VERTREL XF [CF3(CHF)2CF2CF3] available from Du Pont-Mitsui Fluorochemicals Company, Ltd. as a fluorine-based solvent.
The ionic liquid was added to the predetermined mass of VERTREL XF.
Specifically, 0.5 parts by mass or 0.1 parts by mass of each ionic liquid was added to 100 parts by mass of VERTREL XF (25° C.).
Note that, a case where the mixture was visually observed to be transparent, the ionic liquid was judged as being dissolved. A case where the mixture was not transparent or insoluble matter was observed, the ionic liquid was judged as not being dissolved (insoluble).
The ionic liquid was dissolved when 0.5 parts by mass of the ionic liquid was added.
The ionic liquid was not dissolved when 0.5 parts by mass of the ionic liquid was added, but the ionic liquid was dissolved when 0.1 parts by mass of the ionic liquid was added.
The ionic liquid was not dissolved both when 0.5 parts by mass of the ionic liquid was added and when 0.1 parts by mass of the ionic liquid was added.
For series [3] the following is noted: in acetonitrile; cited from earlier work.

As to `CCCCCCCCCCCCCCCCCC[N+]1=C2CCCCCN2CCC1.O=S(=O)([N-]S(=O)(=O)C(F)(F)C(F)(F)C(F)(F)C(F)(F)F)C(F)(F)C(F)(F)C(F)(F)C(F)(F)F` [Ex. 2A, bis(nonafluorobutanesulfonyl)imide-8-octadecyl-1,8-diazabicyclo[5.4.0]-7-undecenium], in series [1], the “Weight reduction temperature 5%” value amounted to 341.1 °C, the “Weight reduction temperature 10%” value was 372.9 °C and the “Weight reduction temperature 20%” value worked out at 396.3 °C. The “Thermal stability improved compared with perfluoropolyether Z-DOL or Z-TETRAOL by” value in series [1] (difference to Z-DOL or Z-TETRAOL) is at least 100 °C. Also, the “Solubility to fluorine-based solvent” value in series [2] is 0.5% by mass or greater. Also, the “Solubility to fluorine-based solvent” value in series [2] (listed as Example 2A) is on record as at least 0.5 % by mass.
With `O=S1(=O)NS(=O)(=O)C(F)(F)C(F)(F)C1(F)F` [hexafluorocyclopropane-1,3-bis(sulfonyl)imide], the “pKa of acid that is a source of the conjugate base” value (from here on “pKa”) in series [3] is −0.8.
In the case of `CCCCCCCCCCCCCCCCCCN1CCCN2CCCN=C12.O=S1(=O)NS(=O)(=O)C(F)(F)C(F)(F)C1(F)F` [Comp. Ex. 4A, hexafluorocyclopropane-1,3-bis(sulfonyl)imide-7-octadecyl-1,5,7-triazabicyclo[4.4.0]-5-decenium, reference compound], in series [1], the “Weight reduction temperature 5%” value came out at 288.4 °C, the “Weight reduction temperature 10%” value was found to be 376.2 °C and the “Weight reduction temperature 20%” value stood at 412.1 °C. Further, in series [2], the “Dissolved or not in fluorine-based solvent” value (from here on “Dissolved or not”) was “not dissolved” and the “Solubility to fluorine-based solvent” value is reported as “less than 0.1% by mass”.
Regarding `CCCCCCCCCCCCCCCCCCN1CCCC1.O=S1(=O)NS(=O)(=O)C(F)(F)C(F)(F)C1(F)F` [Comp. Ex. 6A, hexafluorocyclopropane-1,3-bis(sulfonyl)imide-N-octadecylpyrrolidinium, reference compound], in series [1], the “Weight reduction temperature 5%” value was 336.4 °C, the “Weight reduction temperature 10%” value turned out to be 358.4 °C and the “Weight reduction temperature 20%” value came to 379.4 °C. Moreover, in series [2], the “Solubility to fluorine-based solvent” value is on record as “less than 0.1% by mass”.
With `F[B-](F)(F)F.[H+]` [tetrafluoroboric acid], the “pKa” value in series [3] is 1.8.
As to `CCCCCCCCCCCCCCCCCC[n+]1ccn(CCCC)c1.O=S(=O)([N-]S(=O)(=O)C(F)(F)C(F)(F)C(F)(F)C(F)(F)F)C(F)(F)C(F)(F)C(F)(F)C(F)(F)F` [Comp. Ex. 8A, bis(nonafluorobutanesulfonyl)imide-1-butyl-3-n-octadecylimidazolium, reference compound], in series [1], the “Weight reduction temperature 5%” value was determined as 347.2 °C, the “Weight reduction temperature 10%” value stood at 367.0 °C and the “Weight reduction temperature 20%” value was 387.8 °C. In addition, the “Solubility to fluorine-based solvent” value in series [2] is recorded as “less than 0.1% by mass”.
With `O=S(=O)(NS(=O)(=O)C(F)(F)C(F)(F)C(F)(F)C(F)(F)F)C(F)(F)C(F)(F)C(F)(F)C(F)(F)F` [bis(nonafluorobutanesulfonyl)imide], the “pKa” value in series [3] is recorded as 0.0.
As for `CCCCCCCCCCCCCCCCCCn1cc[n+](CCCCCCCCC[n+]2ccn(CCCCCCCCCCCCCCCCCC)c2)c1.O=S(=O)([N-]S(=O)(=O)C(F)(F)C(F)(F)C(F)(F)C(F)(F)F)C(F)(F)C(F)(F)C(F)(F)C(F)(F)F.O=S(=O)([N-]S(=O)(=O)C(F)(F)C(F)(F)C(F)(F)C(F)(F)F)C(F)(F)C(F)(F)C(F)(F)C(F)(F)F` [Comp. Ex. 10A, 1,9-bis[bis(nonafluorobutanesulfonyl)imide-1-octadecylimidazolium]nonane, reference compound], in series [1], the “Weight reduction temperature 5%” value was 355.1 °C, the “Weight reduction temperature 10%” value was 381.0 °C and the “Weight reduction temperature 20%” value turned out to be 400.9 °C. Also, the “Solubility to fluorine-based solvent” value in series [2] is given as “less than 0.1% by mass”.
Consider `CCCCCCCCCCCCCCCCCC[N+]1(CCCC)CCCC1.O=S(=O)([N-]S(=O)(=O)C(F)(F)C(F)(F)C(F)(F)C(F)(F)F)C(F)(F)C(F)(F)C(F)(F)C(F)(F)F` [Ex. 4A, bis(nonafluorobutanesulfonyl)imide-N-butyl-N-octadecylpyrrolidinium], for which, in series [1], the “Weight reduction temperature 5%” value amounted to 331.4 °C, the “Weight reduction temperature 10%” value came to 360.2 °C and the “Weight reduction temperature 20%” value is 382.5 °C. Besides, in series [2], the “Dissolved or not” value is reported as “could be dissolved” and the “Solubility to fluorine-based solvent” value is given as 0.5% by mass or greater. For the same molecule, the “Solubility to fluorine-based solvent” value in series [2] (listed as Example 4A) is recorded as at least 0.5 % by mass.
For the molecule `CCCCCCCCCCCCCCCCCCN1CCCC1.O=S(=O)(NS(=O)(=O)C(F)(F)C(F)(F)C(F)(F)C(F)(F)F)C(F)(F)C(F)(F)C(F)(F)C(F)(F)F` [Ex. 5A, bis(nonafluorobutanesulfonyl)imide-N-octadecylpyrrolidinium], in series [1], the “Weight reduction temperature 5%” value came to 312.6 °C, the “Weight reduction temperature 10%” value was determined as 334.4 °C and the “Weight reduction temperature 20%” value turned out to be 355.5 °C. Also, in series [2], the “Dissolved or not” value is listed as “could be dissolved” and the “Solubility to fluorine-based solvent” value is 0.5% by mass or greater. Besides, the “Solubility to fluorine-based solvent” value in series [2] (listed as Example 5A) is listed as at least 0.5 % by mass.
As to `CCCCCCCCCCCCCCCCCCC1CCCCN2CCCN=C12.O=S1(=O)NS(=O)(=O)C(F)(F)C(F)(F)C1(F)F` (stereo not shown) [Comp. Ex. 1A, hexafluorocyclopropane-1,3-bis(sulfonyl)imide-6-octadecyl-1,8-diazabicyclo[5.4.0]-7-undecenium, reference compound], in series [1], the “Weight reduction temperature 5%” value was 346.3 °C, the “Weight reduction temperature 10%” value came to 384.1 °C and the “Weight reduction temperature 20%” value amounted to 414.0 °C. Besides, the “Solubility to fluorine-based solvent” value in series [2] is “less than 0.1% by mass”.
As for `C[n+]1ccn(CCC(F)(F)C(F)(F)C(F)(F)C(F)(F)C(F)(F)C(F)(F)C(F)(F)C(F)(F)F)c1.O=S(=O)([N-]S(=O)(=O)C(F)(F)C(F)(F)C(F)(F)C(F)(F)F)C(F)(F)C(F)(F)C(F)(F)C(F)(F)F` [Ex. 9A, bis(nonafluorobutanesulfonyl)imide-1-1′H,1′H,2′H,2′H-heptadecafluorodecyl-3-methylimidazolium], in series [1], the “Weight reduction temperature 5%” value was determined as 350.3 °C, the “Weight reduction temperature 10%” value came out at 365.5 °C and the “Weight reduction temperature 20%” value came to 381.3 °C. The “Solubility to fluorine-based solvent” value in series [2] is listed as 0.5% by mass or greater. In addition, the “Solubility to fluorine-based solvent” value in series [2] (listed as Example 9A) is listed as at least 0.5 % by mass.
As for `O=S(=O)(C(S(=O)(=O)C(F)(F)F)S(=O)(=O)C(F)(F)F)C(F)(F)F` [tris(trifluoromethanesulfonyl)methide], the “pKa” value in series [3] is −3.7.
Turning to `O=S(=O)(O)C(F)(F)C(F)(F)C(F)(F)C(F)(F)C(F)(F)C(F)(F)C(F)(F)C(F)(F)F` [heptadecafluorooctane sulfonic acid], the “pKa” value in series [3] was 0.7.
